ChEMBL document CHEMBL1201862, “PubChem BioAssay data set” (2004)
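Exposure lasted 48 hours, with cells grown in 96-well plates and compounds tested at five concentrations. The concentration for 50% growth inhibition is given as GI50.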 Active and inactive are the calls of the source. Rule as the data show it: active = GI50 up to about 1.1 µM and inactive = higher.

Assays:
Assay in all cases: NCI-60 cell line screen, 48 h
K562 = system: K562
KM12 = system: KM12
SK-OV-3 = system: SK-OV-3
COLO 205 = system: COLO 205
HOP-62 = system: HOP-62
DLD-1 = system: DLD-1
OVCAR-4 = system: OVCAR-4
HCT-15 = system: HCT-15
SK-MEL-5 = system: SK-MEL-5
UACC-62 = system: UACC-62
MCF7 = system: MCF7
HOP-18 = system: HOP-18
HL-60 = system: HL-60
MOLT-4 = system: MOLT-4
SNB-19 = system: SNB-19
LOX IMVI = system: LOX IMVI
OVCAR-5 = system: OVCAR-5
NCI-H23 = system: NCI-H23
HCT-116 = system: HCT-116
NCI-H522 = system: NCI-H522
Malme-3M = system: Malme-3M
NCI/ADR-RES = system: NCI/ADR-RES
SNB-75 = system: SNB-75
SF-539 = system: SF-539
OVCAR-3 = system: OVCAR-3
SNB-78 = system: SNB-78
SF-268 = system: SF-268
CCRF-CEM = system: CCRF-CEM
NCI-H226 = system: NCI-H226
XF498 = system: XF498
U-251 = system: U-251
UO-31 = system: UO-31
KM-20L2 = system: KM-20L2
OVCAR-8 = system: OVCAR-8
HOP-92 = system: HOP-92
A549 = system: A549
SK-MEL-28 = system: SK-MEL-28
DMS-273 = system: DMS-273
M19-MEL = system: M19-MEL
SN12C = system: SN12C
SK-MEL-2 = system: SK-MEL-2
HCC 2998 = system: HCC 2998
NCI-H460 = system: NCI-H460
DMS-114 = system: DMS-114
SF-295 = system: SF-295
IGROV-1 = system: IGROV-1
RPMI-8226 = system: RPMI-8226
EKVX = system: EKVX
UACC-257 = system: UACC-257
CAKI-1 = system: CAKI-1
SW-620 = system: SW-620
A498 = system: A498
HT-29 = system: HT-29
RXF 393 = system: RXF 393
ACHN = system: ACHN
LXFL 529 = system: LXFL 529
M14 = system: M14
TK-10 = system: TK-10
SR = system: SR
786-0 = system: 786-0

## COc1ccc(C2C3CCCC(C3=O)C(c3ccc(OC)cc3)N2N=O)cc1 (centres undefined)
K562
  GI50: 23.9 µM (inactive)
KM12
  GI50: 29.6 µM (inactive)
SK-OV-3
  GI50: 37.4 µM (inactive)
COLO 205
  GI50: 20.1 µM (inactive)
HOP-62
  GI50: 38.5 µM (inactive)
DLD-1
  GI50: 33.9 µM (inactive)
OVCAR-4
  GI50: 21.7 µM (inactive)
HCT-15
  GI50: 36.9 µM
SK-MEL-5
  GI50: 17.7 µM (inactive)
UACC-62
  GI50: 28.6 µM (inactive)
MCF7
  GI50: 18.8 µM (inactive)
HOP-18
  GI50: 8.91 µM (inactive)
HL-60
  GI50: 25.2 µM (inactive)
MOLT-4
  GI50: 25.2 µM (inactive)
SNB-19
  GI50: 36.3 µM (inactive)
LOX IMVI
  GI50: 18 µM (inactive)
OVCAR-5
  GI50: > 55.6 µM (inactive)
NCI-H23
  GI50: 19.5 µM (inactive)
HCT-116
  GI50: 29 µM (inactive)
NCI-H522
  GI50: 17.1 µM (inactive)
Malme-3M
  GI50: 7.85 µM (inactive)
NCI/ADR-RES
  GI50: 32.4 µM (inactive)
SNB-75
  GI50: 26.5 µM (inactive)
SF-539
  GI50: > 10 µM (inactive)
OVCAR-3
  GI50: 6.71 µM (inactive)
SNB-78
  GI50: > 66.4 µM (inactive)
SF-268
  GI50: 48.5 µM (inactive)
CCRF-CEM
  GI50: 26.1 µM (inactive)
NCI-H226
  GI50: 23.3 µM (inactive)
XF498
  GI50: 33.7 µM (inactive)
U-251
  GI50: 40.6 µM (inactive)
UO-31
  GI50: 56.1 µM (inactive)
KM-20L2
  GI50: 30.7 µM (inactive)
OVCAR-8
  GI50: 37 µM (inactive)
HOP-92
  GI50: 41.7 µM (inactive)
A549
  GI50: 34.7 µM (inactive)
SK-MEL-28
  GI50: 40.3 µM (inactive)
DMS-273
  GI50: 23 µM (inactive)
M19-MEL
  GI50: 32.4 µM (inactive)
SN12C
  GI50: 18.5 µM (inactive)
SK-MEL-2
  GI50: 20.5 µM (inactive)
HCC 2998
  GI50: 28.9 µM (inactive)
NCI-H460
  GI50: 20.6 µM (inactive)
DMS-114
  GI50: 23.1 µM (inactive)
SF-295
  GI50: 20.7 µM (inactive)
IGROV-1
  GI50: 35.5 µM (inactive)
RPMI-8226
  GI50: 20.7 µM (inactive)
EKVX
  GI50: 56.9 µM (inactive)
UACC-257
  GI50: 27.9 µM (inactive)
CAKI-1
  GI50: 29.9 µM (inactive)
SW-620
  GI50: 42.9 µM (inactive)
A498
  GI50: 15.2 µM (inactive)
HT-29
  GI50: 21.4 µM (inactive)
RXF 393
  GI50: 18.9 µM (inactive)

## COc1cc([C@@H]2c3cc4c(cc3[C@@H](OC(=O)c3cccc(N)c3)C3COC(=O)[C@@H]32)OCO4)cc(OC)c1O (some centres undefined)
K562
  GI50: 2.02 µM (inactive)
KM12
  GI50: 17.8 µM (inactive)
SK-OV-3
  GI50: 11.5 µM (inactive)
COLO 205
  GI50: 11.3 µM (inactive)
HOP-62
  GI50: 2.32 µM (inactive)
DLD-1
  GI50: 12.3 µM (inactive)
ACHN
  GI50: 1.96 µM (inactive)
OVCAR-4
  GI50: 42.1 µM (inactive)
LXFL 529
  GI50: 0.76 µM (active)
M14
  GI50: 0.933 µM (active)
HCT-15
  GI50: 13.3 µM
SK-MEL-5
  GI50: 0.536 µM (active)
UACC-62
  GI50: 0.667 µM (active)
HL-60
  GI50: 2.7 µM (inactive)
MOLT-4
  GI50: 1.91 µM (inactive)
SNB-19
  GI50: 34.8 µM (inactive)
LOX IMVI
  GI50: 4.47 µM (inactive)
OVCAR-5
  GI50: 17.9 µM (inactive)
NCI-H23
  GI50: 1.19 µM (inactive)
HCT-116
  GI50: 5.71 µM (inactive)
Malme-3M
  GI50: 2.37 µM (inactive)
SNB-75
  GI50: 5.36 µM (inactive)
TK-10
  GI50: 59.3 µM (inactive)
SF-539
  GI50: 0.621 µM (active)
OVCAR-3
  GI50: 34.6 µM (inactive)
SNB-78
  GI50: 64.4 µM (inactive)
SF-268
  GI50: 1.47 µM (inactive)
CCRF-CEM
  GI50: 2.18 µM (inactive)
NCI-H226
  GI50: 1.15 µM (inactive)
XF498
  GI50: 0.863 µM (active)
U-251
  GI50: 5.85 µM (inactive)
UO-31
  GI50: 5.26 µM (inactive)
SR
  GI50: 0.565 µM (active)
KM-20L2
  GI50: 1.41 µM (inactive)
OVCAR-8
  GI50: 8.05 µM (inactive)
A549
  GI50: 1.63 µM (inactive)
SK-MEL-28
  GI50: 0.91 µM (active)
DMS-273
  GI50: 0.525 µM (active)
M19-MEL
  GI50: 5.68 µM (inactive)
SN12C
  GI50: 3.42 µM (inactive)
SK-MEL-2
  GI50: 14.9 µM (inactive)
HCC 2998
  GI50: 9.93 µM (inactive)
NCI-H460
  GI50: 0.671 µM (active)
DMS-114
  GI50: 3.66 µM (inactive)
SF-295
  GI50: 0.32 µM (active)
IGROV-1
  GI50: 13.8 µM (inactive)
RPMI-8226
  GI50: 3.86 µM (inactive)
EKVX
  GI50: 27 µM (inactive)
UACC-257
  GI50: 5.69 µM (inactive)
CAKI-1
  GI50: 1.84 µM (inactive)
786-0
  GI50: 2.49 µM (inactive)
SW-620
  GI50: 3.33 µM (inactive)
A498
  GI50: 0.649 µM (active)
HT-29
  GI50: 3.13 µM (inactive)
RXF 393
  GI50: 0.632 µM (active)
